Experimental data: patent publication US10112926B2 (priority 2014, dated 2018)
pIC50: −log10 of the molar value. Counter-ions that a name gives are not always drawn.

Columns and labels:
[1] = target: PI 3-kinase alpha (Rat-1 pBABEpuro Myr-HA-hp110 alpha cells) (Homo sapiens (Human), UniProt P42336); assay: cell-based
Protocol: Cellular Assays for PI 3-Kinase Alpha (H2), Beta (I2) and Delta (J2): HTRF (Homogeneous Time Resolved Fluorescence) Format
All cell lines were cultivated in complete growth medium (DMEM high glucose GlutaMAX™ Pyruvate, 10% (v/v) fetal bovine serum, 0.1 mM MEM NEAA, 25 mM HEPES, puromycin 10 μg/mL, 100 U/ml Penicillin, 100 μg/ml Streptomycin) to 90% confluency at 37° C./5% CO2/90% humidity in a humidified CO2 incubator and were split twice a week.
Semi-automated preparation of cell lysates: For low (inhibited) controls, 0.9 mM NVP-BGT226-AF-1 in 90% (v/v) DMSO was added to the compound master plate. For compound testing, the cells were seeded at a density of 4000 (Rat-1_PI3Kdelta), 8000 (Rat-1_PI3Kalpha), or 6500 (Rat-1_PI3Kbeta) cells in 30 μl complete growth medium into cell culture treated 384-well plates and were grown at 37° C./5% CO2/90% humidity for 24 h. 10 μl of the compound predilutions were transferred to the cells. After treatment with compound for 1 h, medium was removed and cells were lysed by the addition of 20 μl lysis buffer supplemented with blocking buffer. Detection of p-AKT(Ser473) was performed with the HTRF pAKT (Ser473) assay kit according to the manufacturer's instructions using 16 μl of cell lysate in a total detection volume of 20 μl.

PI 4-kinase beta = PI 4-kinase beta (Homo sapiens (Human), UniProt Q9UBF8); settings: read-out: Assay D PI4Kβ IC50
Vps34 = Vps34 (Homo sapiens (Human), UniProt Q8NEB9); settings: read-out: Assay C VPS34 IC50
Sequence of Vps34 (Q8NEB9 whole entry): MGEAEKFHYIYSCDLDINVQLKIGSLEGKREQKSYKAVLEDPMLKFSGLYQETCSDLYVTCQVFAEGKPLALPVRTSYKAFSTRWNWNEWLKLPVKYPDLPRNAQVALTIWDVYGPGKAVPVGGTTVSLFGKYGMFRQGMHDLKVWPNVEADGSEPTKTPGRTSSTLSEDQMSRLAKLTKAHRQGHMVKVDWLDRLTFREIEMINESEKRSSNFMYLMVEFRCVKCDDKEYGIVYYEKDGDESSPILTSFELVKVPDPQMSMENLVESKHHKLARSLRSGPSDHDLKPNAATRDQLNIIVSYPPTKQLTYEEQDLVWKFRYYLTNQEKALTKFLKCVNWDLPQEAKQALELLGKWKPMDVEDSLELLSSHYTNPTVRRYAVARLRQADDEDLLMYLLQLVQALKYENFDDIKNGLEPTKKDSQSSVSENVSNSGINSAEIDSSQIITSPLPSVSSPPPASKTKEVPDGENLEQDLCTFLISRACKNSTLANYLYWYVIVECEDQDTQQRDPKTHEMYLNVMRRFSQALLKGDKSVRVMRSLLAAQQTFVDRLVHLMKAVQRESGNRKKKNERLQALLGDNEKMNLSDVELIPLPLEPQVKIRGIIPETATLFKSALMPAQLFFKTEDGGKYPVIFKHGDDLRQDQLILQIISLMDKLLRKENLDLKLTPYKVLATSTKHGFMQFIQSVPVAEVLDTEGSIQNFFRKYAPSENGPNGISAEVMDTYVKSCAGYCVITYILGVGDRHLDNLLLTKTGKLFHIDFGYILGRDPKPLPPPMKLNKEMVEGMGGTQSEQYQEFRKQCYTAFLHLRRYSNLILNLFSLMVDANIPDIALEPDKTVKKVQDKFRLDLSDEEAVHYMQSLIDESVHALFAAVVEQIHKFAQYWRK

PI 3-kinase alpha = PI 3-kinase alpha (Homo sapiens (Human), UniProt P42336); settings: read-out: Assay A PI3Kα IC50
Sequence of PI 3-kinase alpha (P42336 whole entry, looked up): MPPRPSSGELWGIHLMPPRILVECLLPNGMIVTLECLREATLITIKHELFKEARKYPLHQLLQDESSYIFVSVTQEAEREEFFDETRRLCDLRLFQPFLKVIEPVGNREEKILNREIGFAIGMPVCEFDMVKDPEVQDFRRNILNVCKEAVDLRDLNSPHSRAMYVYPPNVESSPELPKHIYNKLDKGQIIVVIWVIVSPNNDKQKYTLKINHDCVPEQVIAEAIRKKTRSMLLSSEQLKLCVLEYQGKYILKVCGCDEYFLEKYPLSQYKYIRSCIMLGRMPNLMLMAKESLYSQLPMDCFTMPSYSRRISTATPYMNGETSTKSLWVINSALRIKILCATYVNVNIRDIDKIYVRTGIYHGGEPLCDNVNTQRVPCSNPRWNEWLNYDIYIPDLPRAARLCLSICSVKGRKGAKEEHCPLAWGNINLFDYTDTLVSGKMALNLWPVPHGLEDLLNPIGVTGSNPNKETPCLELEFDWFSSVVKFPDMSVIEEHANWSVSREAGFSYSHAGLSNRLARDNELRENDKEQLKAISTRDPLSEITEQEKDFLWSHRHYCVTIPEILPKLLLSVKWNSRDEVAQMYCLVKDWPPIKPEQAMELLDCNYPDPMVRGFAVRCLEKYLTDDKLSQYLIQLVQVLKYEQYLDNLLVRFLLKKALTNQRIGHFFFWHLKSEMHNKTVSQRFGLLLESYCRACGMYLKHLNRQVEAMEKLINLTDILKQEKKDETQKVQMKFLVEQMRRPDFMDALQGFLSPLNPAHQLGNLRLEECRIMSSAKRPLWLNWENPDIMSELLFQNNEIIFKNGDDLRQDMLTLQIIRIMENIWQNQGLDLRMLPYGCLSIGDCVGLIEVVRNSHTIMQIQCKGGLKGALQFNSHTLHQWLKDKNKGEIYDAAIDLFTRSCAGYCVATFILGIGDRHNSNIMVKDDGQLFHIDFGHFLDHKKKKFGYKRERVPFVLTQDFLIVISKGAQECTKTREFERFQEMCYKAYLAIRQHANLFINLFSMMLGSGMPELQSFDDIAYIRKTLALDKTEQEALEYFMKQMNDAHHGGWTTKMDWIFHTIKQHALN
Sequence of PI 3-kinase alpha (P27986 whole entry partner, looked up): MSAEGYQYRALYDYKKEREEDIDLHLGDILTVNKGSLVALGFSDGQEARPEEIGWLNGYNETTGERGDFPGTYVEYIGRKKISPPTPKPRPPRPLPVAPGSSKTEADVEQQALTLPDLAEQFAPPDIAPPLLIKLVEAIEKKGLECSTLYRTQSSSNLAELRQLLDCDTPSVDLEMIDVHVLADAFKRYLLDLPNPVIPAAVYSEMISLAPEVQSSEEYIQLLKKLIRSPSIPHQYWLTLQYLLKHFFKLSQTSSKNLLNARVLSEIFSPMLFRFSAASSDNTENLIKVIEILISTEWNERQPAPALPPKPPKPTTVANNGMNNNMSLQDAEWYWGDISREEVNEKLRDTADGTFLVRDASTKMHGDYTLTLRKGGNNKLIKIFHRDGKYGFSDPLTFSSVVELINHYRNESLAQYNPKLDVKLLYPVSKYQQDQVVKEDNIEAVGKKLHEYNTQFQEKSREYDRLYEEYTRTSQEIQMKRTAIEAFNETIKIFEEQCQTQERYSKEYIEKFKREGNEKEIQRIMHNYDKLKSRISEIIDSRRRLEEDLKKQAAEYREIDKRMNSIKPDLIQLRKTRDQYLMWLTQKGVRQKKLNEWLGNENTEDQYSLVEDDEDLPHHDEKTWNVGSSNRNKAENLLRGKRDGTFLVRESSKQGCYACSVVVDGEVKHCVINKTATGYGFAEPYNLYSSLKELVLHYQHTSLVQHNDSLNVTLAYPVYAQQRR

Sequence of PI 4-kinase beta (Q9UBF8 whole entry): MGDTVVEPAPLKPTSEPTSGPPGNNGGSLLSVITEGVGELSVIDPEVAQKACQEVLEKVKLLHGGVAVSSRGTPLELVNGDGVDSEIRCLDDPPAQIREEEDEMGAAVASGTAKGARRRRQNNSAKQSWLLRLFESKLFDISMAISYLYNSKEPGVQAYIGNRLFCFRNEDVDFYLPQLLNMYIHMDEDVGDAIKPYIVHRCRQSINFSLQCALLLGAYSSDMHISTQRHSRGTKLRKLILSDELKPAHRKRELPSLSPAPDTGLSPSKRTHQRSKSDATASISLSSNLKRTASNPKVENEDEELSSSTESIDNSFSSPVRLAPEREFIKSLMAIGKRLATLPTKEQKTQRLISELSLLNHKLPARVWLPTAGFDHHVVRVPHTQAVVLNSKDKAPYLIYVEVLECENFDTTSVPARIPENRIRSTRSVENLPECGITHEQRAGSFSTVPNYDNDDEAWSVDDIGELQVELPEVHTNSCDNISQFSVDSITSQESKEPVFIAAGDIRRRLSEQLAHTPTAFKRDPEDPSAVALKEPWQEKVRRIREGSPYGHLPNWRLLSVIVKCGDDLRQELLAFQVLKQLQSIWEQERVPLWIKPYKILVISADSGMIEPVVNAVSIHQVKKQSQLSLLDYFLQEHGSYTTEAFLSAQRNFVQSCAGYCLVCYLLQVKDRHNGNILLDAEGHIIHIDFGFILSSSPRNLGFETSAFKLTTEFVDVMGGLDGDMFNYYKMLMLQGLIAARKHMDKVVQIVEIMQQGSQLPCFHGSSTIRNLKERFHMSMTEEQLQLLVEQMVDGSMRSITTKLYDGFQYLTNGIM
Sequence of PI 3-kinase alpha (Rat-1 pBABEpuro Myr-HA-hp110 alpha cells) (P42336 whole entry, looked up): as the sequence (P42336 whole entry, looked up) above
Sequence of PI 3-kinase alpha (Rat-1 pBABEpuro Myr-HA-hp110 alpha cells) (Q63787 whole entry partner, looked up): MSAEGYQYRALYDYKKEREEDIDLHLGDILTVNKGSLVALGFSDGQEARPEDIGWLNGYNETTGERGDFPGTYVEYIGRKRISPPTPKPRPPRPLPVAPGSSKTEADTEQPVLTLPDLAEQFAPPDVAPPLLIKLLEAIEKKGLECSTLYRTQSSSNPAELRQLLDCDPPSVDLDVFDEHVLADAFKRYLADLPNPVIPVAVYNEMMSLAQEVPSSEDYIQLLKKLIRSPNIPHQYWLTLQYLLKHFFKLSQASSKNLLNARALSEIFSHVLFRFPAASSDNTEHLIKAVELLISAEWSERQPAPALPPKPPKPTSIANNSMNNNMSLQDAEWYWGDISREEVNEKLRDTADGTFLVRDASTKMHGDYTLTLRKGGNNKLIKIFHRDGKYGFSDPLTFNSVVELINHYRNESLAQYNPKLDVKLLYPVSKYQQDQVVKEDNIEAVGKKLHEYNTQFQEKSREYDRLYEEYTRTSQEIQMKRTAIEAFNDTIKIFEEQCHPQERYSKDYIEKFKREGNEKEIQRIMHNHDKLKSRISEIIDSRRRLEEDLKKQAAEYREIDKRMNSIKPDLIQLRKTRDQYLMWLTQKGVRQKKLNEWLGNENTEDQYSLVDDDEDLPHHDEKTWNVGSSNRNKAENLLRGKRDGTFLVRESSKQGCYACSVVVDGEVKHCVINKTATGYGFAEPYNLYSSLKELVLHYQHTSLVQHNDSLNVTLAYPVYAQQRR

`Cc1cc(-c2cc(-c3cc(S(=O)(=O)N4CC(N(C)C)C4)ccc3C)cnc2N)on1` [Example 19.19, 5-(5-((3-(dimethylamino)azetidin-1-yl)sulfonyl)-2-methylphenyl)-3-(3-methylisoxazol-5-yl)pyridin-2-amine acetic acid salt] was tested, and the pIC50 [1] was under 5.00, the pIC50 (PI 4-kinase beta) was 5.07 and the pIC50 (Vps34) was under 5.00. It also gave a pIC50 (PI 3-kinase alpha) of 5.51.
